# From US12258328B2, “6-membered heteroaryl-containing aminopyridine compounds as EGFR inhibitors” (YUHAN CORPORATION, priority 2021, dated 2025)
# Read-outs that look alike come from different tables or passages of the source.
# How the values were obtained:
# EGFR del19/C797S = EGFR del19/C797S (Homo sapiens, UniProt P00533, C797S/DEL746-750); test: Biochemical EGFR kinase assay (Lance Ultra TR-FRET), double mutant del19/C797S
# In short: (§1)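 Enzyme reactions lasted 1 hour at room temperature with test compounds between 0.003 and 10 μM, followed by 10 mM EDTA quench.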
# EGFR L858R/T790M/C797S = EGFR L858R/T790M/C797S (Homo sapiens, UniProt P00533, C797S/L858R/T790M); test: Biochemical EGFR kinase assay (Lance Ultra TR-FRET), triple mutant L858R/T790M/C797S
# In short: as §1
# EGFR wildtype = EGFR wildtype (Homo sapiens, UniProt P00533); test: Biochemical EGFR kinase assay (Lance Ultra TR-FRET), wildtype
# In short: as §1
# EGFR del19/T790M/C797S = EGFR del19/T790M/C797S (Homo sapiens, UniProt P00533, C797S/DEL746-750/T790M); test: Biochemical EGFR kinase assay (Lance Ultra TR-FRET), triple mutant del19/T790M/C797S
# In short: as §1
# EGFR L858R/C797S = EGFR L858R/C797S (Homo sapiens, UniProt P00533, C797S/L858R); test: Biochemical EGFR kinase assay (Lance Ultra TR-FRET), double mutant L858R/C797S
# In short: as §1
# [1] = IC50 L858R/T790M/C797S, 100 μM ATP
# [2] = IC50 del19/T790M/C797S, 100 μM ATP
# [3] = ATP at Km, read-out: IC50 del19/C797S, Km ATP
# [4] = ATP at Km, read-out: IC50 L858R/T790M/C797S, Km ATP
# [5] = ATP at Km, read-out: IC50 WT, Km ATP
# [6] = ATP at Km, read-out: IC50 del19/T790M/C797S, Km ATP
# [7] = ATP at Km, read-out: IC50 L858R/C797S, Km ATP
# Chain of EGFR L858R/C797S (P00533 25-1210 C797S/L858R): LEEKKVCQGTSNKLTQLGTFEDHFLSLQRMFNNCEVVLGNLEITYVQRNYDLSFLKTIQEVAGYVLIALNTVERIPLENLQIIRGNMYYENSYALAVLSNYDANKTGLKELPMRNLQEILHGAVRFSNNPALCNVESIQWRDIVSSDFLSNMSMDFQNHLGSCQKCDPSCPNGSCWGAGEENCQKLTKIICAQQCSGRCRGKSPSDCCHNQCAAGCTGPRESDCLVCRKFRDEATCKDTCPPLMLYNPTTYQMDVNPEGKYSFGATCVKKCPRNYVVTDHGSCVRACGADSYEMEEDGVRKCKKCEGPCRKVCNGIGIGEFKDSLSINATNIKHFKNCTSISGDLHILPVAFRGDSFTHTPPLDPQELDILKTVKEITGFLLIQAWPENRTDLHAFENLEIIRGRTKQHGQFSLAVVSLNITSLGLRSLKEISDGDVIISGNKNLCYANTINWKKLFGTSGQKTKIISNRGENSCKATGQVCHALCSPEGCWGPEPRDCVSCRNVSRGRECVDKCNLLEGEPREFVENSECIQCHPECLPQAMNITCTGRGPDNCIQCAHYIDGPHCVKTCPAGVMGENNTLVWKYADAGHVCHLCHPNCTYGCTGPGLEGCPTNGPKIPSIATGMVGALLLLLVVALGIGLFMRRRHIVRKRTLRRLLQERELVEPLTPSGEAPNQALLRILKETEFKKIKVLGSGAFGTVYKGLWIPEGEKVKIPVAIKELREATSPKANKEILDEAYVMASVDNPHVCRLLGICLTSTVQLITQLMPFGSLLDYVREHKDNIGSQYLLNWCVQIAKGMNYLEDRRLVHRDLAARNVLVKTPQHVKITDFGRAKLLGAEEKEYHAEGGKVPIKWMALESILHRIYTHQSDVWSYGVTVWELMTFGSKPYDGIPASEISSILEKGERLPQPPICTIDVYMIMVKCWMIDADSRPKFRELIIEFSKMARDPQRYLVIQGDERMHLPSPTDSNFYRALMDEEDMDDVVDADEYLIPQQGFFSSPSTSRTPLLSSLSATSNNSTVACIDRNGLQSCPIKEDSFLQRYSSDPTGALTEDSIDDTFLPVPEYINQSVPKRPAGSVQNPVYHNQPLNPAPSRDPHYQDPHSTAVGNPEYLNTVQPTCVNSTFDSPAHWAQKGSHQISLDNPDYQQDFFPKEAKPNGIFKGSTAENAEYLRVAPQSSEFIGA
# Chain of EGFR L858R/T790M/C797S (P00533 25-1210 T790M/C797S/L858R): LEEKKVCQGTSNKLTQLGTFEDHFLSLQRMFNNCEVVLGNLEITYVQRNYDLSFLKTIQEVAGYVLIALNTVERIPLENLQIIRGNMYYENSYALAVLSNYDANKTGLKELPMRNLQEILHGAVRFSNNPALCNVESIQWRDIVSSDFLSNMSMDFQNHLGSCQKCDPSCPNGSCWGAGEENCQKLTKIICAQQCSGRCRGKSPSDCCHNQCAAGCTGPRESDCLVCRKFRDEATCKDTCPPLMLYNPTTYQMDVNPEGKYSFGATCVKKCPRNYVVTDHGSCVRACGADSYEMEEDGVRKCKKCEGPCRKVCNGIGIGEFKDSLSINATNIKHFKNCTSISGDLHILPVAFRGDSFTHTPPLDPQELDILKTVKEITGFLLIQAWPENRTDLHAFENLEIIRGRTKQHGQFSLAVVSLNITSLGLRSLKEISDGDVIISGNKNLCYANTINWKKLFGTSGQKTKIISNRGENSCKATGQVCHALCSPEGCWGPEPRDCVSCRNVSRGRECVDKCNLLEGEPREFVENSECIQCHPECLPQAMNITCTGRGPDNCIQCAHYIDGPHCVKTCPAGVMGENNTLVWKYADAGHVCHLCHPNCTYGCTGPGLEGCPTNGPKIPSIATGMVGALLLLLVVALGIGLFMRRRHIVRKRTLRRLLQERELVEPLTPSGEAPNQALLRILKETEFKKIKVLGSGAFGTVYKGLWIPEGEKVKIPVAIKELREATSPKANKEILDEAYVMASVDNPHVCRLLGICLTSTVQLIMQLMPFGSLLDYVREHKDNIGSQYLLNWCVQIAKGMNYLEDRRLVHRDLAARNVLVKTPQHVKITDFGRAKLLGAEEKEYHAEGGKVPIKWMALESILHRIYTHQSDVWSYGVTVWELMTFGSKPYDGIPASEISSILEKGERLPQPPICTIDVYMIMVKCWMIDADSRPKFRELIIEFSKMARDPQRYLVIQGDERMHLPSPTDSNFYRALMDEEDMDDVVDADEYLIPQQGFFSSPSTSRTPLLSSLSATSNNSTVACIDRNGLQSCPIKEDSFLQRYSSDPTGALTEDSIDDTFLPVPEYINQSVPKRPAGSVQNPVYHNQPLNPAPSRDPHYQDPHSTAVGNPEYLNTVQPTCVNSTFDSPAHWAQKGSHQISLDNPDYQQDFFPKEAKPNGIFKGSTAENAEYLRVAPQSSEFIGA
# Chain of EGFR wildtype (P00533 25-1210): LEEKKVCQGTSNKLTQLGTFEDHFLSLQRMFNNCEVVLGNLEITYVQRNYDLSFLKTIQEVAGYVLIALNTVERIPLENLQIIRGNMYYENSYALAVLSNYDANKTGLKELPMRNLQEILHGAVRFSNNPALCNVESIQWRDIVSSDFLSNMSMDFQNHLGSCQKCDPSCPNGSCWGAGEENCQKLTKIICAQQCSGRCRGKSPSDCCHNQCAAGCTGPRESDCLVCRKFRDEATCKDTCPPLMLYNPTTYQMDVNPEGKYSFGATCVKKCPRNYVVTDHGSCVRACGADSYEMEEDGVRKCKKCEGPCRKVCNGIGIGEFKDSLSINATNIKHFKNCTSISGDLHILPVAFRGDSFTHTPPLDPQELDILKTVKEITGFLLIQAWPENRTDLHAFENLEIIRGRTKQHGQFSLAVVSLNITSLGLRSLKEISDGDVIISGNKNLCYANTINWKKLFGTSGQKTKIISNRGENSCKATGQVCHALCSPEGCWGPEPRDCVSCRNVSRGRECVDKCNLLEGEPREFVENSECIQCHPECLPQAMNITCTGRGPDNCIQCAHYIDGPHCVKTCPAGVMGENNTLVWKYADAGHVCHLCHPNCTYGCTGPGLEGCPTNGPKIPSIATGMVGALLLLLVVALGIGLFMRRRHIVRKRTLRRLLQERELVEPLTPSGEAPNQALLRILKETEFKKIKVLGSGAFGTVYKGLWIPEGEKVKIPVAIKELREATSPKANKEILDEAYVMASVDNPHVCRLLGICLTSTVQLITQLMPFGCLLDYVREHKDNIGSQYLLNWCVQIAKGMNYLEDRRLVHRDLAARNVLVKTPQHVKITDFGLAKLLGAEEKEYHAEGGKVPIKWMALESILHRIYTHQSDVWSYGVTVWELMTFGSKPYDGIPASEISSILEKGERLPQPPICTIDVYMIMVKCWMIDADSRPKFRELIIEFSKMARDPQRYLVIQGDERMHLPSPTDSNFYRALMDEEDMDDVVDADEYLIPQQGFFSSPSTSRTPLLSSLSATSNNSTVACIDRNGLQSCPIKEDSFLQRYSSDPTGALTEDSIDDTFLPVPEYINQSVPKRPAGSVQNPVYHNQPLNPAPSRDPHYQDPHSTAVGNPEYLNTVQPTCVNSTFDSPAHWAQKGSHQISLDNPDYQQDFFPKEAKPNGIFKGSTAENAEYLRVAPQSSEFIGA
# Chain of EGFR del19/C797S (P00533 with tags, fused parts or gaps DEL746-750/C797S): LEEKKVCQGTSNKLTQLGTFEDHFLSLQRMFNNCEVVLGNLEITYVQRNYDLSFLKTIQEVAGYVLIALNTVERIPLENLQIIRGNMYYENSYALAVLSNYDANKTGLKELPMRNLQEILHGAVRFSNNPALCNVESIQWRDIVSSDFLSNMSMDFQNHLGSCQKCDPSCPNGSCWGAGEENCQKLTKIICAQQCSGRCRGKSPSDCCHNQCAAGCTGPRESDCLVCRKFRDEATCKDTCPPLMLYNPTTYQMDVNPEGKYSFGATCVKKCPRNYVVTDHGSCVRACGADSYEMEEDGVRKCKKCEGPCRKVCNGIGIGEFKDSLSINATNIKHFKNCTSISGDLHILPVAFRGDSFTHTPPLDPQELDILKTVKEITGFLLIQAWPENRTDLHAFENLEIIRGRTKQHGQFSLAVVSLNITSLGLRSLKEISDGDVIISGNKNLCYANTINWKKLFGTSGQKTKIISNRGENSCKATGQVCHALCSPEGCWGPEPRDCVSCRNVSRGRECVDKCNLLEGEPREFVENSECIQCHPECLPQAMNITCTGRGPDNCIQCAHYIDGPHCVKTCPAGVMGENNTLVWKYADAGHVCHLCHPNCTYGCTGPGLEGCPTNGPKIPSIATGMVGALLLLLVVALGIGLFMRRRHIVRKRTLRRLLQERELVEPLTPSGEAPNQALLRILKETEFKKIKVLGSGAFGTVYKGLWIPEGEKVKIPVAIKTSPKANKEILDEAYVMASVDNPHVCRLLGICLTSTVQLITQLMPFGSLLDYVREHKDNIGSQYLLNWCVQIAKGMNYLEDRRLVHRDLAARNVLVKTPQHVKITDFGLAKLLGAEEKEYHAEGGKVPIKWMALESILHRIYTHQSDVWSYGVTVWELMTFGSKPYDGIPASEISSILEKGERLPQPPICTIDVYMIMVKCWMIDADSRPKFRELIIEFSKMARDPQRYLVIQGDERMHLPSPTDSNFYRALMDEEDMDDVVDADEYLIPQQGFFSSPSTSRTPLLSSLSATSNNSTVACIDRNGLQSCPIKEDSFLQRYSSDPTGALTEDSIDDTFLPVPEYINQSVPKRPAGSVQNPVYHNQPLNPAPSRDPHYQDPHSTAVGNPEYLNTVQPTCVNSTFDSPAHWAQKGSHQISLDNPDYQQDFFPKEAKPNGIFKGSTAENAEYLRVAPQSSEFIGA
SMILES,"IC50 (EGFR del19/C797S; IC50 del19/C797S, 100 μM ATP)",IC50 (EGFR L858R/T790M/C797S; [1]),"IC50 (EGFR wildtype; IC50 WT, 100 μM ATP)",IC50 (EGFR del19/T790M/C797S; [2]),"IC50 (EGFR L858R/C797S; IC50 L858R/C797S, 100 μM ATP)",IC50 (EGFR del19/C797S; [3]),IC50 (EGFR L858R/T790M/C797S; [4]),IC50 (EGFR wildtype; [5]),IC50 (EGFR del19/T790M/C797S; [6]),IC50 (EGFR L858R/C797S; [7])
"CC(C)(O)[C@H]1CC[C@@H](Nc2cc(Nc3ccnc(-c4cnn(S(=O)(=O)C5CC5)c4)n3)ncc2-c2ccc(OC(F)(F)F)cn2)CC1 [Example 196, 2-((1s,4s)-4-((6′-((2-(1-(Cyclopropylsulfonyl)-1H-pyrazol-4-yl)pyrimidin-4-yl)amino)-5-(trifluoromethoxy)-[2,3′-bipyridin]-4′-yl)amino)cyclohexyl)propan-2-ol]",135 nM,9.5 nM,> 10000 nM,14.7 nM,> 10000 nM,–,–,–,–,–
"CN(C)C[C@H]1CC[C@@H](Nc2cc(Nc3ccnc(-c4cnn(S(=O)(=O)C5CC5)c4)n3)ncc2-c2ccc(OC(F)(F)F)cn2)CC1 [Example 197, N^6′-(2-(1-(Cyclopropylsulfonyl)-1H-pyrazol-4-yl)pyrimidin-4-yl)-N^4′-((1s,4s)-4-((dimethylamino)methyl)cyclohexyl)-5-(trifluoromethoxy)-[2,3′-bipyridine]-4′,6′-diamine]",1.1 nM,0.5 nM,1240 nM,0.5 nM,5.3 nM,1 nM,0.3 nM,3 nM,0.6 nM,0.3 nM
"CC1(O)CCC(Nc2cc(Nc3ccnc(-c4cnn(S(=O)(=O)C5CC5)c4)n3)ncc2-c2cc(S(C)(=O)=O)ccn2)CC1 (stereo not drawn) [Example 198, (1s,4s)-4-((6′-((2-(1-(Cyclopropylsulfonyl)-1H-pyrazol-4-yl)pyrimidin-4-yl)amino)-4-(methylsulfonyl)-[2,3′-bipyridin]-4′-yl)amino)-1-methylcyclohexan-1-ol]",2.9 nM,0.4 nM,> 10000 nM,0.8 nM,2.9 nM,0.7 nM,0.2 nM,3.7 nM,0.5 nM,0.8 nM
"CN1CCN(C(=O)c2ccc(-c3cnc(Nc4ccnc(-c5cnn(S(=O)(=O)C6CC6)c5)n4)cc3N[C@H]3CC[C@@](C)(O)CC3)nc2)CC1 [Example 199, (6′-((2-(1-(Cyclopropylsulfonyl)-1H-pyrazol-4-yl)pyrimidin-4-yl)amino)-4′-(((1s,4s)-4-hydroxy-4-methylcyclohexyl)amino)-[2,3′-bipyridin]-5-yl)(4-methylpiperazin-1-yl)methanone]",0.3 nM,0.3 nM,137 nM,0.7 nM,0.4 nM,0.1 nM,0.1 nM,0.3 nM,0.4 nM,0.04 nM
"O=C(c1ccc(-c2cnc(Nc3ccnc(-c4cnn(S(=O)(=O)C5CC5)c4)n3)cc2N[C@H]2CC[C@@H](CO)CC2)nc1)N1CCOCC1 [Example 200, (6′-((2-(1-(Cyclopropylsulfonyl)-1H-pyrazol-4-yl)pyrimidin-4-yl)amino)-4′-(((1s,4s)-4-(hydroxymethyl)cyclohexyl)amino)-[2,3′-bipyridin]-5-yl)(morpholino)methanone]",0.3 nM,0.2 nM,134 nM,0.2 nM,0.6 nM,0.3 nM,0.1 nM,0.6 nM,0.1 nM,0.2 nM
"CC(C)(O)[C@H]1CC[C@@H](Nc2cc(Nc3ccnc(-c4cnn(S(=O)(=O)C5CC5)c4)n3)ncc2-c2ccc(C(=O)N3CCOCC3)cn2)CC1 [Example 201, (6′-((2-(1-(Cyclopropylsulfonyl)-1H-pyrazol-4-yl)pyrimidin-4-yl)amino)-4′-(((1s,4s)-4-(2-hydroxypropan-2-yl)cyclohexyl)amino)-[2,3′-bipyridin]-5-yl)(morpholino)methanone]",0.6 nM,0.4 nM,1040 nM,0.4 nM,1.8 nM,0.5 nM,0.1 nM,2.2 nM,0.3 nM,0.5 nM
"CN1CCN(C(=O)c2ccc(-c3cnc(Nc4ccnc(-c5cnn(S(=O)(=O)C6CC6)c5)n4)cc3N[C@H]3CC[C@@H](CO)CC3)nc2)CC1 [Example 202, (6′-((2-(1-(Cyclopropylsulfonyl)-1H-pyrazol-4-yl)pyrimidin-4-yl)amino)-4′-(((1s,4s)-4-(hydroxymethyl)cyclohexyl)amino)-[2,3′-bipyridin]-5-yl)(4-methylpiperazin-1-yl)methanone]",0.2 nM,0.1 nM,94.2 nM,0.3 nM,0.3 nM,0.1 nM,0.1 nM,0.2 nM,0.2 nM,0.03 nM
"CN1CCN(C(=O)c2ccc(-c3cnc(Nc4ccnc(-c5cnn(S(=O)(=O)C6CC6)c5)n4)cc3N[C@H]3CC[C@@H](C(C)(C)O)CC3)nc2)CC1 [Example 203, (6′-((2-(1-(Cyclopropylsulfonyl)-1H-pyrazol-4-yl)pyrimidin-4-yl)amino)-4′-(((1s,4s)-4-(2-hydroxypropan-2-yl)cyclohexyl)amino)-[2,3′-bipyridin]-5-yl)(4-methylpiperazin-1-yl)methanone]",0.3 nM,0.3 nM,395 nM,0.7 nM,0.8 nM,0.1 nM,0.2 nM,0.3 nM,0.4 nM,0.1 nM
"CN1CCN(C(=O)c2ccc(-c3cnc(Nc4ccnc(-c5cnn(S(=O)(=O)C6CC6)c5)n4)cc3N[C@H]3CC[C@@H](CN(C)C)CC3)nc2)CC1 [Example 204, (6′-((2-(1-(Cyclopropylsulfonyl)-1H-pyrazol-4-yl)pyrimidin-4-yl)amino)-4′-(((1s,4s)-4-((dimethylamino)methyl)cyclohexyl)amino)-[2,3′-bipyridin]-5-yl)(4-methylpiperazin-1-yl)methanone]",0.2 nM,0.1 nM,124 nM,0.1 nM,1 nM,0.2 nM,0.1 nM,0.4 nM,0.1 nM,0.1 nM
"C[C@]1(O)CC[C@@H](Nc2cc(Nc3ccnc(-c4cnn(S(=O)(=O)C5CC5)c4)n3)ncc2-c2ccc(OCCO)cn2)CC1 [Example 205, (1s,4s)-4-((6′-((2-(1-(Cyclopropylsulfonyl)-1H-pyrazol-4-yl)pyrimidin-4-yl)amino)-5-(2-hydroxyethoxy)-[2,3′-bipyridin]-4′-yl)amino)-1-methylcyclohexan-1-ol]",0.6 nM,0.2 nM,1440 nM,0.7 nM,3.5 nM,0.7 nM,0.2 nM,2 nM,0.3 nM,0.4 nM
"O=S(=O)(C1CC1)n1cc(-c2nccc(Nc3cc(N[C@H]4CC[C@@H](CO)CC4)c(-c4ccc(OCCO)cn4)cn3)n2)cn1 [Example 206, 2-((6′-((2-(1-(Cyclopropylsulfonyl)-1H-pyrazol-4-yl)pyrimidin-4-yl)amino)-4′-(((1s,4s)-4-(hydroxymethyl)cyclohexyl)amino)-[2,3′-bipyridin]-5-yl)oxy)ethan-1-ol]",0.6 nM,0.4 nM,348 nM,0.9 nM,2.4 nM,0.7 nM,0.3 nM,1.2 nM,0.6 nM,0.4 nM
"CN(C)CCOc1ccc(-c2cnc(Nc3ccnc(-c4cnn(S(=O)(=O)C5CC5)c4)n3)cc2N[C@H]2CC[C@@](C)(O)CC2)nc1 [Example 208, (1s,4s)-4-((6′-((2-(1-(Cyclopropylsulfonyl)-1H-pyrazol-4-yl)pyrimidin-4-yl)amino)-5-(2-(dimethylamino)ethoxy)-[2,3′-bipyridin]-4′-yl)amino)-1-methylcyclohexan-1-ol]",0.3 nM,0.2 nM,243 nM,0.2 nM,0.6 nM,0.2 nM,0.1 nM,0.3 nM,0.1 nM,0.1 nM
"CN(C)CCOc1ccc(-c2cnc(Nc3ccnc(-c4cnn(S(=O)(=O)C5CC5)c4)n3)cc2N[C@H]2CC[C@@H](CO)CC2)nc1 [Example 209, ((1s,4s)-4-((6′-((2-(1-(Cyclopropylsulfonyl)-1H-pyrazol-4-yl)pyrimidin-4-yl)amino)-5-(2-(dimethylamino)ethoxy)-[2,3′-bipyridin]-4′-yl)amino)cyclohexyl)methanol]",0.3 nM,0.2 nM,99.2 nM,0.2 nM,0.6 nM,0.1 nM,0.1 nM,0.2 nM,0.1 nM,0.1 nM
"CN(C)CCOc1ccc(-c2cnc(Nc3ccnc(-c4cnn(S(=O)(=O)C5CC5)c4)n3)cc2N[C@H]2CC[C@@H](C(C)(C)O)CC2)nc1 [Example 210, 2-((1s,4s)-4-((6′-((2-(1-(Cyclopropylsulfonyl)-1H-pyrazol-4-yl)pyrimidin-4-yl)amino)-5-(2-(dimethylamino)ethoxy)-[2,3′-bipyridin]-4′-yl)amino)cyclohexyl)propan-2-ol]",0.5 nM,0.3 nM,426 nM,0.4 nM,1.8 nM,0.3 nM,0.2 nM,0.6 nM,0.3 nM,0.1 nM
